Test results as given in patent US10913728B2, “O-substituted hydroxamic acids” (The Johns Hopkins University, priority 2016, dated 2021).
Marks after values point to notes of the source that are not given here.

What was measured:
[1] = 1H NMR protocol: decomposition of the compounds and relative product yields in aqueous solution; type: physicochemical; details: for Carboxylic Acid relative product yield / NHPY relative product yield / PY (corresponding pyrazolone) relative product yield: decomposition in aqueous solution, 1H NMR
Text: A ^1H NMR spectroscopy protocol was used to examine the decomposition of the compounds of the disclosure and measure the relative product yields in aqueous solution (Guthrie, D. A.; Ho, A.; Takahashi, C. G.; Collins, A.; Morris, M.; Toscano, J. P. J. Org. Chem. 2015, 80, 1338-1348; and Guthrie, D. A.; Nourian, S.; Takahashi, C. G.; Toscano, J. P. J. Org. Chem. 2015, 80, 1349-1356).

[2] = Nitroxyl production via N2O quantification in the headspace (GC), relative to Angeli's salt standard; type: physicochemical; design: key to % HNO: Stable; details: for % HNO: N2O yield relative to AS standard, phosphate buffer with DTPA, 37° C.
Text: Nitrous oxide (N2O) is produced via the dimerization and dehydration of HNO, and is the most common marker for nitroxyl production (Fukuto et al., Chem. Res. Toxicol. 18:790-801 (2005)). […] Using either nitrous oxide gas or Angeli's salt (“AS”) as a standard, the relative amounts of N2O released from compounds of the disclosure is examined via gas chromatography (“GC”) headspace analysis.
Another procedure for determining N2O released from compounds of the disclosure is as follows. A Varian CP-3800 instrument equipped with a 1041 injector, electron capture detector, and a 25 m 5 Å molecular sieve capillary column was applied for the analysis of nitrous oxide (N2O). Grade 5.0 nitrogen was used as both the carrier (8 mL/min) and the make-up (22 mL/min) gas. For all measurements, the column oven temperature was kept constant at 150° C., and the injector oven and the detector oven were held at 200° C. and 300° C., respectively. A 100 μL gastight syringe with a sample-lock was used for all gas injections. Samples were prepared in 6 mL Wheaton Clr headspace vials with volumes pre-measured for sample uniformity (actual vial volume ranges from 5.8-6.3 mL). Vials were charged with 3 mL of phosphate buffer containing the metal chelator, diethylenetriaminepentaacetic acid (DTPA), and fit with rubber septa and 20 mm aluminum seals. The vials were purged with argon and equilibrated for at least 10 minutes at 37° C. in a dry block heater. A stock solution of Angeli's salt (AS) was prepared in 10 mM sodium hydroxide, and compounds of the disclosure (10 mM) were prepared in acetonitrile and used immediately after preparation. 30 μL of the stock solutions was transferred into vials using a gastight syringe, yielding final concentrations of 0.5, 0.1, and 0.02 mM. Substrates were then incubated long enough to ensure complete decomposition and equilibration of N2O with the headspace. Depending on the concentration of the compound of the disclosure, 60 or 20 μL of the headspace was sampled and injected three times using a gastight syringe with a sample lock. The N2O yield was averaged and reported relative to the AS standard.

[3] = UV-Vis protocol: decomposition kinetics, donor half-lives at pH 7.4 and 37° C.; type: physicochemical; details: buffer, pH 7.4, 37° C.
Method: A UV-VIS protocol was used to determine the decomposition kinetics of Compounds 1-5. According to this protocol, decomposition of the test compound was monitored by UV-Vis spectroscopy to measure donor half-lives at pH 7.4 and 37° C. (Guthrie, D. A.; Kim, N. Y.; Siegler, M. A.: Moore, C. D.; Toscano, J. P. J. Am. Chem. Soc. 2012, 134, 1962-1965; and Guthrie, D. A.; Ho, A.; Takahashi, C. G.; Collins, A.; Morris, M.; Toscano, J. P. J. Org. Chem. 2015, 80, 1338-1348).

[4] = 1H NMR mechanistic study: decomposition of Compound 1 in the presence of 3,4-dimethyl-1-phenylpyrazolone (PY-2); type: physicochemical; details: 0.5 mM compound with 0.5 mM PY-2, 0.25 M phosphate buffer, 0.2 mM DTPA, pH 7.4, 37° C., argon
Method: A ^1H NMR Spectroscopy Protocol was used to confirm the formation of nitroso carbonyls following decomposition of Compound 1. In this protocol, 0.5 mM Compound 1 was incubated in the presence of 0.5 mM 3,4-dimethyl-1-phenylpyrazolone in 0.25 M phosphate buffer with 0.2 mM DTPA at pH 7.4, 80% H2O, 10% D2O, and 10% DMSO-d6 at 37° C. under argon. Spectra were collected at the start of the experiment and after complete decomposition.

[5] = Stability of NHPY-1 incubated with PY-2 by 1H NMR spectroscopy; type: physicochemical; details: 1H NMR spectroscopy at pH 7.4 and 10
Text: Based on reactivity studies of bis-heteroatom-substituted amides (Glover, S. A. In The Chemistry of Hydroxylamines, Oximes, and Hydroxamic Acids, Part 2; Rappoport, Z., Liebman, J. F., Eds.; John Wiley & Sons: Chichester, West Sussex, 2009, p 839-923), the formation of NHPY-1 may be possible through the direct attack of PY-2 on the amide nitrogen of the hydroxamic acid moiety of […] (Scheme 4).

[6] = cited from earlier work

SMILES	Carboxylic Acid relative product yield [1]	NHPY relative product yield [1]	PY (corresponding pyrazolone) relative product yield [1]	NHPY-1 yield from decomposition of Compound 1 ([1]; in the absence of PY-2) [%]	acetate yield from decomposition of Compound 1 ([1]; in the absence of PY-2) [%]	% HNO ([2]; 20 μM compound)	% HNO ([2]; 100 μM compound)	% HNO ([2]; 500 μM compound)	HNO yield from decomposition of Compound 1 ([2]; in the absence of PY-2) [%]	half-life ([3]; UV-Vis spectroscopy) [min]	formation of NHPY-1 upon decomposition [4]	formation of NHPY-1 upon decomposition ([4]; listed as Compound I)	half-life [3] [min]	stability on incubation with PY-2 [5]	pKa [6]
CO/N=C(\C)C1(ONC(C)=O)C(=O)N(c2ccccc2)N=C1C (stereo not drawn) [Compound 1, N-((4-(1-(methoxyimino)ethyl)-3-methyl-5-oxo-1-phenyl-4,5-dihydro-1H-pyrazol-4-yl)oxy)acetamide]	73	26	74	26	73	91%	75%	70%	70	25	not formed	quantitative			
CC(=O)NOC1(C)C(=O)N(c2ccccc2)N=C1C (stereo not drawn) [Compound 2, N-((3,4-dimethyl-5-oxo-1-phenyl-4,5-dihydro-1H-pyrazol-4-yl)oxy)acetamide]						a	a	a							
CO/N=C(\C)C1(ONC(=O)OC)C(=O)N(c2ccccc2)N=C1C (stereo not drawn) [Compound 3, methyl (4-(1-(methoxyimino)ethyl)-3-methyl-5-oxo-1-phenyl-4,5-dihydro-1H-pyrazol-4-yl)oxycarbamate]	27	72	28			41%	29%	20%					0.6		
CO/N=C(\C)C1(ONC(=O)OC)C(=O)N(C)N=C1C (stereo not drawn) [Compound 4, methyl (4-(1-(methoxyimino)ethyl)-1,3-dimethyl-5-oxo-4,5-dihydro-1H-pyrazol-4-yl)oxycarbamate]	14	86	14			29%	17%	8%		1.2					
CO/N=C(\C)C1(ONC(=O)OC(C)(C)C)C(=O)N(c2ccccc2)N=C1C (stereo not drawn) [Compound 5, tert-butyl (4-(1-(methoxyimino)ethyl)-3-methyl-5-oxo-1-phenyl-4,5-dihydro-1H-pyrazol-4-yl)oxycarbamate]						35^c %	26%								
CON=C(C)C1(N(O)C(C)=O)C(=O)N(c2ccccc2)N=C1C (stereo not drawn) [NHPY-1, N-hydroxy-N-(4-(1-(methoxyimino)ethyl)-3-methyl-5-oxo-1-phenyl-4,5-dihydro-1H-pyrazol-4-yl)acetamide]														stability was confirmed	10.0
